These results are taken from patent publication US12714702B2, “Compositions and methods for treating or preventing pulmonary hypertension” (priority 2020, dated 2026).

Molecules are shown by their SMILES.

The subject of assay [1] is Ki67, PCNA, vWF, α-SMA in MCT-induced PAH animal lung tissue. Put plainly: MCT model, immunofluorescence of lung tissue. The settings on record: MCT rats. In kind it is in vivo, rat. On the procedure:
FIGS. 12A-12B show immunofluorescence imaging for MCT-induced PAH animal lung tissue slides.
Preclinical in-vivo studies for QA were earlier performed at a dose of 10 mg/kg once-a-day in monocrotaline (MCT) induced therapeutic PAH model. Hemodynamic parameters were collected and lung tissues were also collected and were sectioned for visualizing the impact of QA treatment on various PAH biomarkers in-vivo.
OCT compound embedded Tissue sections for control animals, MCT induced PAH animals and QA treated animals were further subjected to immunofluorescent staining to analyze expression levels of essential molecular markers. Briefly, tissue sections were washed twice with 1×PBS followed by blocking for one hour using a blocking buffer (Cell Signaling Technology, Danvers, MA, USA). Followed by blocking, tissue sections were stained with respective primary antibodies overnight; VWF #ab15419, 1:100 (abcam), α-SMA #489385, 1:500 (CST), Ki67 #9129S (CST), 1:250 and PCNA #2586S (CST), 1:100. Following day, tissue sections were washed with 1×PBS twice followed by incubation with Anti-rabbit IgG (H+L), F(ab′)2 Fragment (Alexa Fluor® 488 Conjugate) #4412S 1:250 (CST) and Anti-mouse IgG (H+L), F(ab′)2 Fragment (Alexa Fluor® 594 Conjugate) #8890S, 1:500 (CST) for one hour. Further, sections were washed with 1×PBS twice and the nuclei were stained with DAPI using Vectashield hardset antifade mounting medium with DAPI (Vector Laboratories, Burlingame, CA, USA). Tissues were imaged using Zeiss Axioplan 2 fluorescence microscope (Carl Zeiss AG, Jena, Germany).
Immunofluorescence imaging of the MCT-induced PAH animal lung tissue slides was also performed.

In assay [2] the test system is Ki67, PCNA, vWF, α-SMA in SU5416/Hypoxia-induced PAH animal lung tissue. As to the kind of experiment: SU5416/hypoxia model, immunofluorescence of lung tissue. In kind it is in vivo, rat. Conditions: SU5416/hypoxia rats. On the procedure:
Preclinical in-vivo studies for QA were earlier performed at a dose of 10 mg/kg once-a-day in a SU5416/Hypoxia-induced preventative/prophylactic PAH model. Hemodynamic parameters were collected and lung tissues were also collected and were sectioned for visualizing the impact of QA treatment on various PAH biomarkers in-vivo.
Paraffin embedded tissue sections for control animals, hypoxia induced PAH animals and QA treated animals were further subjected to immunofluorescent staining to analyze expression levels of essential molecular markers. Deparaffinization of tissues was done by exposing tissue sections to a solution of xylene for 3 minutes twice followed by washing with 200 proof absolute 99.8% ethanol and 50% ethanol. Tissues were further washed with 1×PBS twice to ensure complete deparaffinization. Similar protocol was followed hereon for immunofluorescent staining of tissue sections.

Assay [3] has as its system SU5416/hypoxia-induced PAH model. The settings on record: SU5416/hypoxia rats, QA 10 mg/kg i.p. once-a-day for 3 weeks from Day 1.
In assay [4] the test system is serum starved human PASMC. Put plainly: Proliferation after cell starvation, CyQUANT Direct. In kind it is cell-based. The settings on record: Day 5 at 3.1 and 6.2 μM, Day 3 at 6.2 μM. On the procedure: Primary human PASMC were treated with QA up to 6.2 μM concentration. Cell proliferation was quantified by Cyquant Direct.
Briefly, diseased IPAH SMC II cells were seeded in TC-treated 96 well plates in FBS-rich medium and were allowed to adhere overnight. Following day, FBS-rich media was replaced with FBS-Starved media (0% FBS). Cells were further incubated at 37° C./5% CO2 for 24 hours followed by treatments with varying concentrations of QA (1.5-, 3.1-, and 6.2-μM) with dilutions being made in FBS-Starved media. Cellular proliferation was measured as described herein.
In-vitro studies to measure anti-proliferative activity of QA against pulmonary hypertension were performed using primary human PASMC (FIG. 3), primary bovine PASMC (FIG. 4) and high altitude PASMC (HAPASMC) (FIG. 4). HAPASMC, due to prolonged hypoxia exposure, are known to be hyper-proliferative in regular culture conditions, while hyper-proliferation was induced in PASMC cells by 24 hour serum starvation, or by exposure to 5-hydroxytryptamine (5-HT). […] As hyper-proliferation of vascular smooth muscle cells is one of the primary underlying causes for clinical progression of PH pathogenesis, these experiments highlight the therapeutic potential of QA in reversing PH symptoms and progression at non-toxic doses.

The test system of assay [5] is 5-HT induced bovine PASMC. As to the kind of experiment: Anti-proliferative efficacy in 5-hydroxytryptamine induced hyper-proliferation. The class given is cell-based. Conditions: 1.5-5.0 μM, time- and concentration-dependent. On the procedure: Data represent mean±SD (n=5) repeated over 3 experiments. *p<0.05.
Human or bovine PASMC were treated with varying concentrations of QA (1.5-, 3.1-, and 6.2-μM). Cellular proliferation was measured at day 1, day 3 and day 5 by following the manufacturer's protocol. Briefly, a reagent mix of nucleic acid stain and background suppressor were added in PBS followed by addition of the mix in treatment wells (100 μL/well). The plates were incubated at 37° C./5% CO2 for one hour followed by evaluation of fluorescence at 485 ex/535 em. Proliferation inhibition was analyzed relative to control wells on each time point. Data was averaged from two trials with n=6 for SMC II and one trial of n=4 for SMC III.
In-vitro studies to measure anti-proliferative activity of QA against pulmonary hypertension were performed using primary human PASMC (FIG. 3), primary bovine PASMC (FIG. 4) and high altitude PASMC (HAPASMC) (FIG. 4). HAPASMC, due to prolonged hypoxia exposure, are known to be hyper-proliferative in regular culture conditions, while hyper-proliferation was induced in PASMC cells by 24 hour serum starvation, or by exposure to 5-hydroxytryptamine (5-HT). […]

Assay [6] deals with serum starved bovine PASMCs. As to the kind of experiment: Autophagy inhibition assay, Cyto-ID autophagy detection kit. The class given is cell-based. The settings on record: QA 2.5 and 5 μM, 24 hours. How it is done: In FIGS. 9A-9B, PASMC were serum starved for 24 hours, and then treated with varying QA concentrations in serum-starved media. Quantification was performed using Cyto-ID® autophagy kit and Annexin-V/FITC apoptosis kit. […] In FIG. 9C, autophagy inhibition by QA (5 μM) as depicted by increase in LC3B-II concentration in bovine high altitude PASMC quantified by western blot assay kit. Data represent mean±SD (n=3). *p<0.05.
Bovine PASMCs were serum starved in FBS-free media for 24 hours, and then treated with QA for 24 hours at various concentrations (0, 2.5, or 5 μM). Autophagic inhibition (lysosomal fusion with autophagosomes) was measured with Cyto-ID® autophagy detection kit (Enzo Lifesciences Inc., Farmingdale NY) according to manufacturer's manual.
Autophagy inhibition (lysosomal fusion with autophagosomes) by QA was examined. Bovine PASMCs were serum starved in FBS-free media for 24 hours, and then treated with QA (2.5 and 5 μM) for 24 hours. Autophagic inhibition was measured with Cyto-ID® autophagy detection kit. […] QA-induced autophagy inhibition by targeting LC3B-II expression was examined using HAPASMCs.
In other independent experiments, QA's ability to modulate autophagy/apoptotic pathways was quantified in vitro in serum-starved bovine PASMC cells. Similar results were observed.

Turning to `CCN(CC)CCCC(C)Nc1c2ccc(Cl)cc2nc2ccc(OC)cc12` (stereo not drawn) [QA, quinacrine], in assay [1], the “expression of Ki67” value is “reduction in expression” and the “expression of PCNA” value is “reduction in expression”. Also, in assay [1] (compared to control), the “expression of vWF” value is “did not show any reduction in expression” and the “expression of α-smooth muscle actin (α-SMA)” value is listed as “did not show any reduction in expression”. In assay [2], the “expression of Ki67” value is listed as “reduction in expression”, the “expression of PCNA” value was “reduction in expression”, the “expression of vWF” value was “did not show any reduction in expression” and the “expression of α-SMA” value was “did not show any reduction in expression”. This compound returned an RVSP in assay [3] of 45.6±7.9 mmHg. The cellular hyper-proliferation result in assay [4] is “Significant reduction”. Also, the proliferation result in assay [5] is “significantly inhibits proliferation”. The “accumulation of fluorescent dye in autophagosomes (autophagy inhibition)” value in assay [6] is reported as “significantly enhanced the accumulation”.
